Experimental data as given in publication PMC6349357, “Computational and experimental analysis of bioactive peptide linear motifs in the integrin adhesome” (PLoS ONE, 2019).
Marks after values point to notes of the source that are not given here.

What was measured:
TRAP-activated platelets = test: Inhibition of TRAP-induced platelet aggregation after pre-incubation with peptide; assay type: cell-based, human (healthy volunteers); details: for Aggregation after TRAP activation, donor h: replicate donor h; for Aggregation after TRAP activation, donor h / Aggregation after TRAP activation, donor i / Aggregation after TRAP activation, donor j: pal 20 μM, tat 50 μM; for Aggregation after TRAP activation, donor i: replicate donor i; for Aggregation after TRAP activation, donor j: replicate donor j; for Summary of effects of SDC4-derived palmitylated peptides and scrambled controls, 20μM: S2 Table B / S2 Fig, activation of resting platelets and inhibition of aggregation induced by 4 μM TRAP, in words; for Inhibition, donor 20_08_13: replicate 20_08_13; for Aggregation after TRAP, peptide alone 1x (A 1x / B 1x) / Aggregation after TRAP, peptide alone 2x (A 2x / B 2x): TRAP 2 μM after 6 minutes pre-incubation, mean n = 3; for Aggregation after TRAP, peptide alone 1x (A 1x / B 1x): 4 μM pal-peptides, 10 μM tat-peptides; for Aggregation after TRAP, peptide alone 2x (A 2x / B 2x): double concentration of 4 μM (pal) / 10 μM (tat); for Aggregation (inhibition effects of syndecan-derived peptides): S2 Table A, n=6; for Inhibition, donor 14_06_13: replicate 14_06_13; for Inhibition, donor 18_06_13: replicate 18_06_13; for Inhibition, donor 20_06_13: replicate 20_06_13
Description: (§1) Blood was drawn from healthy volunteers into a syringe containing a final volume of 15% Acid Citrate Dextrose (ACD). The blood/ACD mixture was then aliquoted into 15 ml Cellstar tubes, at volumes of 5ml per tube, and centrifuged at 150 rcf for 10 minutes to obtain platelet rich plasma (PRP). PRP was then transferred to a 50ml tube using a pipette. The pH was then adjusted to 6.5. Prostaglandin (PGE1) was then added with a final concentration of 1μM. The PRP was then centrifuged at 750 rcf. After centrifugation the platelet poor plasma (PPP) was discarded and the pellet was resuspended in buffer A (6 mM dextrose, 130 mM NaCl, 9 mM NaHCO3, 10 mM sodium citrate, 10 mM Tris base, 3 mM KCl, 0.81 mM KH2PO4 and 0.9 mM MgCl26H2O, pH 7.4). A platelet concentration of 3x10^5/μl or 1x10^6/μl was obtained by dilution depending on the experiment in which they were used. Platelets were left to rest for 45 minutes and supplemented with 1.8mM calcium chloride prior to use.
(§2) A platelet concentration of 3x10^5 /μl was used when performing standard aggregations and a concentration of 1x10^6 /μl was used for sample preparation for western blot analysis. The extent of platelet aggregation was measured by quantifying the optical density of the samples using the Bio-Data PAP-8 aggregometer (platelet aggregation profiler, Horsham, PA, USA). A temperature of 37°C was maintained and samples were stirred using magnets spinning at 1100 rpm. 200 μl of washed platelets was added to each aggregation tube. Different volumes of buffer, peptide and TRAP were added to achieve the desired concentrations. Peptide/buffer was added to each well after two minutes. TRAP, with a final concentration depending on the experiment, was added 6 minutes later and data was collected for an additional 7 minutes.

resting platelets = test: Platelet aggregation induced by peptide in resting washed platelets (activation); assay type: cell-based, human (healthy volunteers); details: for Activation: platelet aggregation in resting platelets after 6 minutes incubation with peptide, pal-peptides 20 μM, tat-peptides 50 μM, optical density, aggregometer, mean, n>=3; for Activation / Activation, donor 20 08 13 / Activation, 5μM / Activation, 20μM / Activation, donor 14 06 13: unit assumed; for Aggregation before TRAP activation, donor h: replicate donor h; for Aggregation before TRAP activation, donor h / Aggregation before TRAP activation, donor i / Aggregation before TRAP activation, donor j: pal 20 μM, tat 50 μM; for Aggregation before TRAP activation, donor i: replicate donor i; for Aggregation before TRAP activation, donor j: replicate donor j; for Activation, donor 20 08 13: replicate 20_08_13; for Activation, donor 20 08 13 / Activation, donor 22_08_13_DONOR1 / Activation, donor 22_08_13_DONOR2 / Activation, donor 14 06 13 / Activation, donor 18_06_13 / Activation, donor 20_06_13: SDC4 peptides and controls, 20 μM; for Activation, donor 22_08_13_DONOR1: replicate 22_08_13_DONOR1; for Activation, donor 22_08_13_DONOR2: replicate 22_08_13_DONOR2; for Activation, 5μM / Activation, 20μM: S3 Table, n=3; for Activation, 5μM: peptide 5 μM; for Activation, 20μM: peptide 20 μM; for Activation, donor 14 06 13: replicate 14_06_13; for Activation, donor 18_06_13: replicate 18_06_13; for Activation, donor 18_06_13 / Activation, donor 20_06_13: in % (unit assumed); for Activation, donor 20_06_13: replicate 20_06_13
Description: as §1, §2

[1] = platelet aggregation induced by 4 μM TRAP in platelets pre-incubated with peptide (low value = inhibition), pal-peptides 20 μM, tat-peptides 50 μM, mean, n>=3
[2] = replicate 22_08_13_DONOR1, peptide 20 μM, TRAP 4 μM
[3] = replicate 22_08_13_DONOR2, peptide 20 μM, TRAP 4 μM
[4] = S3 Table, peptide 5 μM, aggregation after TRAP, n=3
[5] = S3 Table, peptide 20 μM, aggregation after TRAP, n=3

| Substance | Platelet aggregation remaining after TRAP (low = inhibition) (TRAP-activated platelets; [1]) | Aggregation after TRAP activation, donor h (TRAP-activated platelets; TRAP 4 μM) | Aggregation after TRAP activation, donor i (TRAP-activated platelets; TRAP 4 μM) | Aggregation after TRAP activation, donor j (TRAP-activated platelets; TRAP 4 μM) | Activation (resting platelets) [%] | Aggregation before TRAP activation, donor h (resting platelets) | Aggregation before TRAP activation, donor i (resting platelets) | Aggregation before TRAP activation, donor j (resting platelets) | Inhibition, donor 20_08_13 (TRAP-activated platelets; peptide 20 μM, TRAP 4 μM) | Platelet aggregation remaining after TRAP (low = inhibition) (TRAP-activated platelets; [2]) | Platelet aggregation remaining after TRAP (low = inhibition) (TRAP-activated platelets; [3]) | Activation, donor 20 08 13 (resting platelets) [%] | Activation, donor 22_08_13_DONOR1 (resting platelets) | Activation, donor 22_08_13_DONOR2 (resting platelets) | Platelet aggregation remaining after TRAP (low = inhibition) (TRAP-activated platelets; [4]) | Platelet aggregation remaining after TRAP (low = inhibition) (TRAP-activated platelets; [5]) | Activation, 5μM (resting platelets) [%] | Activation, 20μM (resting platelets) [%] | other results |
| --- | --- | --- | --- | --- | --- | --- | --- | --- | --- | --- | --- | --- | --- | --- | --- | --- | --- | --- | --- |
| tat-AGAKLRKVSKQE-(NH2) [tat-VASP, tat peptide from VASP] | 74 | 75 | 71 | 76 | 3 | 3 | 3 | 3 | – | – | – | – | – | – | – | – | – | – | – |
| IGLPKKKYK [pal-SDC4_middle Control 2, scrambled control of pal-SDC4_middle, reference compound] | – | – | – | – | – | – | – | – | 40 | 19 | 46 | 12 | 17 | 12 | – | – | – | – | Summary of effects of SDC4-derived palmitylated peptides and scrambled controls, 20μM (TRAP-activated platelets): Inhibitor and mild activator |
| pal-KVGFFKR-TLELDRLMASLS [B20p ITGA2b-JM U TGFB1I1-LD, palmitylated chimeric peptide] | – | – | – | – | – | – | – | – | – | – | – | – | – | – | 71 | 66 | 2 | 2 | – |
| pal-KVGAAKR-FAKFEEERAR [B14p ITGA2b-JM2 U ITGB3-middle1, palmitylated chimeric peptide] | – | – | – | – | – | – | – | – | – | – | – | – | – | – | 71 | 3 | 2 | 0 | – |
| tat-SKPIGPDDAIDALSSDFTS-(NH2) [tat-CAST_2, tat peptide from calpastatin (CAST)] | 74 | 78 | 69 | 76 | 3 | 3 | 4 | 4 | – | – | – | – | – | – | – | – | – | – | – |
| pal-KVGFFKR-RMKKKDEGSYD [B17p ITGA2b-JM2 U SDC4-JM, palmitylated chimeric peptide] | – | – | – | – | – | – | – | – | – | – | – | – | – | – | 66 | 11 | 1 | 2 | – |
| pal-FAKFEEERAR-(NH2) [pal-ITGB3_middle1, N-terminally palmitylated ITGB3 peptide …] | 45 | 64 | 60 | 12 | 0 | 1 | 1 | 0 | – | – | – | – | – | – | 73 | 68 | 2 | 2 | Aggregation after TRAP, peptide alone 1x (A 1x / B 1x) (TRAP-activated platelets): 67.67; Aggregation after TRAP, peptide alone 2x (A 2x / B 2x) (TRAP-activated platelets): 43.67 |
| Pal-LGKKPIYKK-APTNEFYA [pal-SDC4-middle U SDC4-tail, palmitylated chimeric peptide of SDC4 middle and tail regions] | – | – | – | – | – | – | – | – | 6 | 2 | 6 | 4 | 1 | 4 | 63 | 5 | 3 | 2 | Aggregation (inhibition effects of syndecan-derived peptides) (TRAP-activated platelets; peptide 20 μM, TRAP 4 μM, mean): 5; Inhibition, donor 14_06_13 (TRAP-activated platelets; peptide 20 μM, TRAP 4 μM): 5; Inhibition, donor 18_06_13 (TRAP-activated platelets; peptide 20 μM, TRAP 4 μM): 5; Inhibition, donor 20_06_13 (TRAP-activated platelets; peptide 20 μM, TRAP 4 μM): 7; Activation, donor 14 06 13 (resting platelets): 3%; Activation, donor 18_06_13 (resting platelets): 3; Activation, donor 20_06_13 (resting platelets): -2 |
| KIKGPKLKY [pal-SDC4_middle Control 1, scrambled control of pal-SDC4_middle, reference compound] | – | – | – | – | – | – | – | – | 8 | 5 | 10 | 5 | 6 | 5 | – | – | – | – | Summary of effects of SDC4-derived palmitylated peptides and scrambled controls, 20μM (TRAP-activated platelets): Inhibitor and mild activator; Inhibition, donor 14_06_13 (TRAP-activated platelets; peptide 20 μM, TRAP 4 μM): 8; Inhibition, donor 18_06_13 (TRAP-activated platelets; peptide 20 μM, TRAP 4 μM): 9; Inhibition, donor 20_06_13 (TRAP-activated platelets; peptide 20 μM, TRAP 4 μM): 2; Activation, donor 14 06 13 (resting platelets): 4%; Activation, donor 18_06_13 (resting platelets): 4; Activation, donor 20_06_13 (resting platelets): 0 |
| tat-SVSETDDpYAEIIDE-(NH2) [tat-FAK_2, tat peptide from PTK2/FAK1, phosphorylated tyrosine] | 71 | 77 | 61 | 76 | 3 | 4 | 3 | 4 | – | – | – | – | – | – | – | – | – | – | – |
| pal-LGKKPIYKK-(NH2) [pal-SDC4_middle, N-terminally palmitylated syndecan-4 middle (variable) region peptide] | – | 3 | 2 | 4 | 0 | 1 | 0 | 1 | 7 | 3 | 14 | 0 | 1 | 0 | – | – | – | 1 | Aggregation (inhibition effects of syndecan-derived peptides) (TRAP-activated platelets; peptide 20 μM, TRAP 4 μM, mean): 26; Summary of effects of SDC4-derived palmitylated peptides and scrambled controls, 20μM (TRAP-activated platelets): Inhibitor; Platelet aggregation remaining after TRAP (low = inhibition) (TRAP-activated platelets; S3 Table, peptide 5 μM, aggregation after TRAP, n=3, listed as A8p SDC4-middle): 72; Platelet aggregation remaining after TRAP (low = inhibition) (TRAP-activated platelets; S3 Table, peptide 5 μM, aggregation after TRAP, n=3, listed as Variable (B)): 59; Platelet aggregation remaining after TRAP (low = inhibition) (TRAP-activated platelets; S3 Table, peptide 20 μM, aggregation after TRAP, n=3, listed as A8p SDC4-middle): 41; Platelet aggregation remaining after TRAP (low = inhibition) (TRAP-activated platelets; S3 Table, peptide 20 μM, aggregation after TRAP, n=3, listed as Variable (B)): 26; Aggregation after TRAP, peptide alone 1x (A 1x / B 1x) (TRAP-activated platelets): 31.67; Aggregation after TRAP, peptide alone 2x (A 2x / B 2x) (TRAP-activated platelets): 1.67; Platelet aggregation after TRAP activation (TRAP-activated platelets; [1]): 3 ^*; Inhibition, donor 14_06_13 (TRAP-activated platelets; peptide 20 μM, TRAP 4 μM): 60; Inhibition, donor 18_06_13 (TRAP-activated platelets; peptide 20 μM, TRAP 4 μM): 23; Inhibition, donor 20_06_13 (TRAP-activated platelets; peptide 20 μM, TRAP 4 μM): 51; Activation, 5μM (resting platelets; listed as A8p SDC4-middle): 2%; Activation, 5μM (resting platelets; listed as Variable (B)): 1%; Activation, donor 14 06 13 (resting platelets): 1%; Activation, donor 18_06_13 (resting platelets): -1; Activation, donor 20_06_13 (resting platelets): 2 |
| pal-KVGAAKR [pal-ITGA2bJM2] | – | – | – | – | – | – | – | – | – | – | – | – | – | – | 28 | 3 | 1 | 1 | – |
